Results as given in patent publication US6472350B1, “Utilization of 3-phenyl-pyrones for pest control” (Bayer Aktiengesellschaft, priority 1998, dated 2002).

What was measured:
Format in all cases: in vivo
[1] = system: caterpillars of the diamond back moth (Plutella xylostella); assay: Plutella test; details: active compound concentration 0.1 %, cabbage leaves (Brassica oleracea) dipped
[2] = system: peach aphid (Myzus persicae); assay: Myzus test; details: active compound concentration 0.1 %, infested cabbage leaves (Brassica oleracea) dipped
Protocol: Myzus Test Solvent: 7 parts by weight of dimethylformamide Emulsifier: 1 part by weight of alkylaryl polyglycol ether To produce a suitable preparation of active compound, 1 part by weight of active compound is mixed with the stated amounts of solvent and emulsifier, and the concentrate is diluted with emulsifier-containing water to the desired concentration. Cabbage leaves (Brassica oleracea) which are heavily infested by the peach aphid (Myzus persicae) are treated by being dipped into the preparation of active compound of the desired concentration. After the desired period of time, the kill in % is determined. 100% means that all aphids have been killed; 0% means that none of the aphids have been killed.

[3] = system: larvae of the mustard beetle (Phaedon cochleariae); assay: Phaedon larvae test; details: active compound concentration 0.1 %, cabbage leaves (Brassica oleracea) dipped
Protocol: Phaedon Larvae Test Solvent: 7 parts by weight of dimethylformamide Emulsifier: 1 part by weight of alkylaryl polyglycol ether To produce a suitable preparation of active compound, 1 part by weight of active compound is mixed with the stated amounts of solvent and emulsifier, and the concentrate is diluted with emulsifier-containing water to the desired concentration. Cabbage leaves (Brassica oleracea) are treated by being dipped into the preparation of active compound of the desired concentration and are populated with larvae of the mustard beetle (Phaedon cochleariae) while the leaves are still moist. After the desired period of time, the kill in % is determined. 100% means that all beetle larvae have been killed; 0% means that none of the beetle larvae have been killed.

[4] = system: green rice leaf hoppers (Nephotettix cincticeps); assay: Nephotettix test; details: active compound concentration 0.1 %, rice seedlings (Oryza sativa) dipped
Protocol: Nephotettix Test Solvent: 7 parts by weight of dimethylformamide Emulsifier: 1 part by weight of alkylaryl polyglycol ether To produce a suitable preparation of active compound, 1 part by weight of active compound is mixed with the stated amounts of solvent and emulsifier, and the concentrate is diluted with emulsifier-containing water to the desired concentration. Rice seedlings (Oryza sativa) are treated by being dipped into the active compound preparation of the desired concentration and are populated with green rice leaf hoppers (Nephotettix cincticeps) while the leaves are still moist. After the desired period of time, the kill in % is determined. 100% means that all leaf hoppers have been killed; 0% means that none of the leaf hoppers have been killed.

## Cc1cc(Cl)ccc1-c1c(O)c(C)c(-c2ccc(F)cc2)oc1=O [drawing 13]
[1]
  Kill in % after 7 d: 100%

## Cc1cc(F)ccc1-c1c(O)c(C)c(-c2ccccn2)oc1=O [drawing 14]
[1]
  Kill in % after 7 d: 100%

## Cc1cc(F)ccc1-c1c(O)c(C)c(-c2ccccn2)oc1=O [drawing 10]
[2]
  Kill in % after 6 d: 98%

## Cc1cc(F)ccc1-c1c(O)c(C)c(-c2ccccn2)oc1=O [drawing 12]
[3]
  Kill in % after 7 d: 100%

## Cc1cc(Cl)ccc1-c1c(O)c(C)c(-c2ccc(F)cc2)oc1=O [drawing 11]
[4]
  Kill in % after 6 d: 100%
